How the values were obtained:
[1] = system: honeybees; assay: Test for Confirmation of Effect from Combined Use with Pesticide 1, 2: number of dead honeybees; type: in vivo, western honeybees; details: for Number of dead honeybees: of 50 honeybees; for honeybees of the tested population that had died: test zone 1
Description: (§1) Cinnamyl alcohol was used as the active ingredient of the honeybee repellent proposed by the present invention, while dinotefuran was used as the pesticide.
(§2) As the test sample representing the pesticide alone, a 0.01% by weight per volume ethanol solution of dinotefuran was used.
(§3) (2) Preparation of Feeding Stations and Water Stations 2 cotton pads (80 mm×170 mm) were layered on a lid of KP cup (150 mm in diameter) and the cotton pads were impregnated with 40% sugar water (80 g), after which two disposable wooden chopsticks (80 mm in length) were placed as “landing areas,” for use as “test insect (honeybee, stink bug) feeding station A.”
(§4) Also, equivalents of feeding station A above, except that water (80 g) was impregnated instead of 40% sugar water (80 g), were used as “water stations.”
(§5) “Test insect (honeybee, stink bug) feeding station A,” whose cotton pads were sprayed uniformly with 5 mL (containing 0.5 mg of dinotefuran) of the 0.01% by weight per volume ethanol solution of dinotefuran, was used as “test insect (honeybee, stink bug) feeding station B.”
(§6) “Test insect (honeybee, stink bug) feeding station A,” whose cotton pads were sprayed uniformly with 5 mL (containing 5 mg of cinnamyl alcohol and 0.5 mg of dinotefuran) of the mixed ethanol solution (0.1% by weight per volume of cinnamyl alcohol, 0.01% by weight per volume of dinotefuran), was used as “test insect (honeybee, stink bug) feeding station C.”
(§7) 3 spaces (80 cm×80 cm×80 cm, 25° C.) covered with nylon gauze were designated as “untreated zone” in which a water station and feeding station A were installed, “test zone 1” in which a water station and feeding stations A, B were installed, and “test zone 2” in which a water station and feeding stations A, C were installed.
(§8) In each of these “untreated zone,” “test zone 1,” and “test zone 2,” 50 honeybees (western honeybees) and 10 stink bugs (southern green stink bugs) were released and the number of dead honeybees and that of dead stink bugs were checked at the start of testing as well as 3 hours, 18 hours, and 20 hours after the start of testing.
(§9) Carvacrol was used as the active ingredient of the honeybee repellent proposed by the present invention, while clothianidin or fipronil was used as the pesticide.
(§10) As a test sample representing a combined use of the honeybee repellent proposed by the present invention and the pesticide, a mixed ethanol solution containing carvacrol and clothianidin (0.1% by weight per volume of carvacrol and 0.01% by weight per volume of clothianidin) or mixed ethanol solution containing carvacrol and fipronil (0.1% by weight per volume of carvacrol and 0.01% by weight per volume of fipronil) was used.
As a test sample representing the pesticide alone, a 0.01% by weight per volume ethanol solution of clothianidin or 0.01% by weight per volume ethanol solution of fipronil was used.
In the same manner as in <Test for Confirmation of Effect from Combined Use with Pesticide 1> above, the number of deaths among 50 honeybees (western honeybees) and that among 10 stink bugs (southern green stink bugs) were checked in each of the “untreated zone,” “test zone 1,” and “test zone 2.” Based on the results of <Test for Confirmation of Effect from Combined Use with Pesticide 1> above, the test was terminated when the number of dead honeybees in “test zone 1” reached around one half the tested population.

[2] = system: stink bugs; assay: Test for Confirmation of Effect from Combined Use with Pesticide 1, 2: number of dead stink bugs; type: in vivo, southern green stink bugs; details: of 10 stink bugs
Description: as §1, §2, §3, §4, §5, §6, §7, §8, §9
as §10, with “used. […]” for “used.”

[3] = system: honeybees; assay: Test for Confirmation of Honeybee Repelling Effect 1, 2, 3 (feeding station with 40% sugar water); type: in vivo; details: for Corrected repelling rate (%) Honeybees: Test 3, 0.1% by weight per volume solution, 5 mL
[4] = system: stink bugs; assay: Test for Confirmation of Stink Bug Behaviors against Active Ingredients 1, 2, 3 (treated filter paper); type: in vivo, southern green stink bugs
Description: The test samples in “Test for Confirmation of Honeybee Repelling Effect 1” above were used.
A liquid calcium carbonate/ethanol dispersion was applied on the entire interior wall of a KP cup (100 mm in diameter×90 mm in height) and air-dried, after which a filter paper (90 mm in diameter) was fixed on the bottom face of the KP cup using double-sided tape. A different filter paper (90 mm in diameter) was cut along its diameter and the resulting semicircle-shaped paper was uniformly treated with 400 μL of each test sample or sample for correction, and then placed over the filter paper fixed on the aforementioned bottom face of the KP cup by allowing the circular parts to overlap, for use as a testing device.
The “repelling rate Y” and “corrected repelling rate Z” were calculated from the above “time A (sec)” and “time B (sec)” using the calculation formula below. For the “repelling rate of sample for correction” used to calculate the “corrected repelling rate Z,” the repelling rate of each of the samples for correction above (ethanol alone or water alone being a solvent for the active ingredient) was used.
Corrected repelling rate Z (%)={Repelling rate of test sample−Repelling rate of sample for correction}/{100−Repelling rate of sample for correction}×100
For the test samples, the test samples in “Test for Confirmation of Honeybee Repelling Effect 2” above were used.

[5] = 0 h (start of testing), 0.01% w/v pesticide, with or without 0.1% w/v repelling component, 5 mL on feeding station
[6] = 3 hours after the start of test
[7] = Test 3, 0.1% by weight per volume solution, 400 μL

Compound | Corrected repelling rate (%) Honeybees [3] [%] | repelling of stink bugs and other injurious insects to be exterminated (in words) [4] | Corrected repelling rate (%) Stinkbugs [4, 7] | other results
CN/C(=N\[N+](=O)[O-])NCc1cnc(Cl)s1 [clothianidin] |  |  |  | Number of dead honeybees [1, 5]: 0; Number of dead honeybees ([1]; 1 h): 11; Number of dead honeybees ([1]; 2 h): 18; Number of dead honeybees ([1]; 3 h): 39; honeybees of the tested population that had died [1, 6]: approx. 60%
CN/C(=N/CC1CCOC1)N[N+](=O)[O-] (stereo not drawn) [dinotefuran] |  |  |  | Number of dead honeybees [1, 5]: 0; Number of dead honeybees ([1]; 3 h): 1; Number of dead honeybees ([1]; 18 h): 3; Number of dead honeybees ([1]; 20 h): 21; honeybees of the tested population that had died ([1]; 20 hours after the start of testing): approx. 40%; Number of dead stink bugs ([2]; 0 h (start of testing)): 0; Number of dead stink bugs ([2]; 3 h): 2; Number of dead stink bugs ([2]; 18 h): 5; Number of dead stink bugs ([2]; 20 h): 6
N#Cc1nn(-c2c(Cl)cc(C(F)(F)F)cc2Cl)c(N)c1[S+]([O-])C(F)(F)F (stereo not drawn) [fipronil] |  |  |  | Number of dead honeybees [1, 5]: 0; Number of dead honeybees ([1]; 2 h): 14; Number of dead honeybees ([1]; 3 h): 32; honeybees of the tested population that had died [1, 6]: approx. 60%
c1cnccn1 [y-57, pyrazine] | 51.3 | not repelling stink bugs | ∘ | 
CCCCCCCC1CCCC(=O)O1 (stereo not drawn) [y-65, δ-dodecalactone] | 86.6 | not repelling stink bugs | ∘ | 
CCCCCC1CCCCC(=O)O1 (stereo not drawn) [y-66, 6-undecanolactone] | 69.3 | not repelling stink bugs | ∘ | 
CCCC(=O)O [y-73, butyric acid] | 33.0 |  | ∘ | 
COc1ccc(C(=O)O)cc1OC [y-75, 3,4-dimethoxybenzoic acid] | 70.6 | not repelling stink bugs | ∘ | 
COc1cc(OC)cc(C(=O)O)c1 [y-76, 3,5-dimethoxybenzoic acid] | 22.1 |  | ∘ | 
c1ccc2cnccc2c1 [y-79, isoquinoline] | 92.3 | not repelling stink bugs | ∘ | 
c1ccc2ncccc2c1 [y-81, quinoline] | 80.2 | not repelling stink bugs | ∘ | 
c1ccc(-c2nc3ccccc3nc2-c2ccccc2)cc1 [y-84, 2,3-diphenylquinoxaline] | 75.8 | not repelling stink bugs | ∘ | 
Oc1cccc2nccnc12 [y-85, 5-hydroxyquinoxaline] | 71.5 | not repelling stink bugs | ∘ | 
Cc1cccc2ccccc12 [y-87, 1-methylnaphthalene] | 74.3 | not repelling stink bugs | ∘ | honeybee repelling rate ([3]; Test 3, summary in text): ≥ 50%
C1CCNC1 [y-91, pyrrolidine] | 61.2 |  |  | Corrected repelling rate (%) Stinkbugs ([4]; 0.5 h, 0.1 % strength): x (“x” for rates “not <0”)
CCc1occc(=O)c1O [y-95, ethyl maltol] | 27.6 |  | ∘ | 
CCC(=O)Oc1c(C)occc1=O [y-96, maltol propionate] | 57.5 | not repelling stink bugs | ∘ | 
